Read-outs that look alike come from different tables or passages of the source.
Key:
Type in all cases: biochemical
[1] = molecular target: human α-thrombin (Homo sapiens, UniProt P00734); test: Thrombin (fIIa) chromogenic assay, IC50
[2] = molecular target: T1, Factor Xa (Homo sapiens, UniProt P00742); test: Factor Xa chromogenic assay, IC50; conditions: 30 min incubation; read-out: fxa IC50 (30 min)
T1 construct: purchased Enzyme Research Laboratories, Inc. (South Bend, Ind.)
Procedure: (§1) The ability of compounds of the present invention to act as a selective inhibitor of thrombin activity was assessed by determining the concentration of test-compound which inhibited the activity of this enzyme by 50%, (IC50), and comparing this value to that determined for all or some of the following related serine proteases: recombinant tissue plasminogen activator (rt-PA), plasmin, activated protein C, chymotrypsin, factor Xa and trypsin.
(§2) The buffer used for all assays was HBSA (10 mM HEPES, pH 7.5, 150 mM sodium chloride, 0.1% bovine serum albumin).
(§3) The assay for IC50 determinations was conducted by combining in appropriate wells of a Corning microtiter plate, 50 microliters of HBSA, 50 microliters of the test compound at a specified concentration (covering a broad concentration range) diluted in HBSA (or HBSA alone for V0 (uninhibited velocity) measurement), and 50 microliters of the enzyme diluted in HBSA. Following a 30 minute incubation at ambient temperature, 50 microliters of the substrate at the concentrations specified below were added to the wells, yielding a final total volume of 200 microliters. The initial velocity of chromogenic substrate hydrolysis was measured by the change in absorbance at 405 nm using a Thermo Max® Kinetic Microplate Reader over a 5 minute period in which less than 5% of the added substrate was utilized. The concentration of added inhibitor which caused a 50% decrease in the initial rate of hydrolysis was defined as the IC50 value.
Factor Xa catalytic activity was determined using the chromogenic substrate S-2765 (N-benzyloxycarbonyl-D-arginine-L-glycine-L-arginine-p-n itroaniline ), obtained from DiaPharma Group (Franklin, Ohio). All substrates were reconstituted in deionized water prior to use. […] Purified human Factor X was obtained from Enzyme Research Laboratories, Inc. (South Bend, Ind.) and Factor Xa (FXa) was activated and prepared from it as described [Bock, P. E., Craig, P. A., Olson, S. T., and Singh, P. Arch, Biochem. Biophys, 273:375-388 (1989)]. The enzyme was diluted into HBSA prior to assay in which the final concentration was 0.25 nM.

[3] = molecular target: human plasmin (Homo sapiens, UniProt P00747); test: Plasmin chromogenic assay, IC50; conditions: 30 min incubation
Procedure: as §1, §2, §3
Plasmin catalytic activity was determined using the chromogenic substrate, S-2366 [L-pyroglutamyl-L-prolyl-L-arginine-p-nitroaniline hydrochloride], which was obtained from DiaPharma group. The substrate was made up in deionized water followed by dilution in HBSA prior to the assay in which the final concentration was 300 micromolar (about 2.5-times Km). Purified human plasmin was obtained from Enzyme Research Laboratories, Inc. The enzyme was diluted into HBSA prior to assay in which the final concentration was 1.0 nM.

[4] = molecular target: T2, bovine pancreatic trypsin (Bos taurus, UniProt P00760); test: Trypsin chromogenic assay, IC50; conditions: 30 min incubation
T2 construct: bovine pancreatic trypsin was obtained from Worthington Biochemical Corp; purchased Worthington Biochemical Corp. TRL3; host or cells: bovine pancreas
T2 sequence (P00760 24-246): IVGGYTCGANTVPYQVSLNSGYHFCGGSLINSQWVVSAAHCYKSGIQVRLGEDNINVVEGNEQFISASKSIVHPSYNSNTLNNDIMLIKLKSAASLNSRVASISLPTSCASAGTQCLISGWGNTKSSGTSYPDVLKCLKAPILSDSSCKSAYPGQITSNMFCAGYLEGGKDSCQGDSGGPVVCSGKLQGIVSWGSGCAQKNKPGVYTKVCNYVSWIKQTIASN
Procedure: as §1, §2, §3
Trypsin catalytic activity was determined using the chromogenic substrate, S-2222 (benzoyl-L-isoleucine-L-glutamic acid-[gamma-methyl ester]-L-arginine-p-nitroanilide), which was obtained from DiaPharma Group. […] Purified (3×-crystallized; TRL3) bovine pancreatic trypsin was obtained from Worthington Biochemical Corp. The enzyme was reconstituted in deionized water and diluted into HBSA prior to assay in which the final concentration was 0.5 nM.

[5] = 0 min incubation of enzyme with inhibitor, read-out: fIIa IC50 (0 min)
[6] = 30 min incubation of enzyme with inhibitor, read-out: fIIa IC50 (30 min)

T1 sequence (P00742 235-488 limits assumed): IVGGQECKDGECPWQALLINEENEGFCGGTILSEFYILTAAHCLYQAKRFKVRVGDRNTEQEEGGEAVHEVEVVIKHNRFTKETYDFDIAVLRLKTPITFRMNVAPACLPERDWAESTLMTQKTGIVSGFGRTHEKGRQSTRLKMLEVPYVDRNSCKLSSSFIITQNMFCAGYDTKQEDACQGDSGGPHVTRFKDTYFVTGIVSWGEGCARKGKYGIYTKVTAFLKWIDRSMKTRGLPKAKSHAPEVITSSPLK
T1 sequence (P00742 41-179 partner limits assumed): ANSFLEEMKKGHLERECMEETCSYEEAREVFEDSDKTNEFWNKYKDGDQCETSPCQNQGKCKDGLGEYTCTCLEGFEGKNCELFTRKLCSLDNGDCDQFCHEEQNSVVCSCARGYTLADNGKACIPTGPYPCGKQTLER
Sequence of human plasmin (P00747 581-810 limits assumed): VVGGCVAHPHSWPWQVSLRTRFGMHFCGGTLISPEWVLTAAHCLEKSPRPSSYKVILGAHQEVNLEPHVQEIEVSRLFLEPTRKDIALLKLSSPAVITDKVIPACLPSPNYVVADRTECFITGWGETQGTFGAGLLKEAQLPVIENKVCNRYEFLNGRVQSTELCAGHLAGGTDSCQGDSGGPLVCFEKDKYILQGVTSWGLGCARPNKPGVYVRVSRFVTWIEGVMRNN
Sequence of human plasmin (P00747 97-580 partner limits assumed): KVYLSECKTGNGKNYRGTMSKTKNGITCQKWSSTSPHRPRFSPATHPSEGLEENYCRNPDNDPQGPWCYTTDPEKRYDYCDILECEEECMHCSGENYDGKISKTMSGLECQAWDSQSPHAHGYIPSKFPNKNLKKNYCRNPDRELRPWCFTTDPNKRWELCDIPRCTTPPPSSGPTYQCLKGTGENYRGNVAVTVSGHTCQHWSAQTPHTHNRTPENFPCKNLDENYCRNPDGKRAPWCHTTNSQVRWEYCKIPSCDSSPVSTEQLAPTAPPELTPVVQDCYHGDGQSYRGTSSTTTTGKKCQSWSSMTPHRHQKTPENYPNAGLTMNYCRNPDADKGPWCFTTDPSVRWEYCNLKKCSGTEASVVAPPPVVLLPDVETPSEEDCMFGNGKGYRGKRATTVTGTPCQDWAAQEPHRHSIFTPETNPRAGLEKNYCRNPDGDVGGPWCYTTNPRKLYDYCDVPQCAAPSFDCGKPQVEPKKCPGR

Molecule | IC50 [1, 5] [µM] | IC50 [1, 6] [µM] | IC50 [2] [µM] | IC50 [3] [µM] | IC50 [4] [µM]
Cc1nc(N)ccc1CNC(=O)Cn1c(C)cnc(NNC(=O)OCc2ccccc2Cl)c1=O [Example 32, 1-[5-(2-Amino-6-methylpyridyl)methylcarboxamidomethyl]-3-[2-(2-chlorobenzyloxycarbonyl)hydrazino]-6-methylpyrazinone, Hydrotrifluoroacetate] | ≤ 0.1 | ≤ 0.1 | ≥ 100 | 2.5 to 100 | ≥ 100
Cc1nc(N)ccc1CNC(=O)Cn1c(C)cnc(NNS(=O)(=O)c2ccccc2)c1=O [Example 22, 1-[5-(2-Amino-6-methylpyridyl)methylcarboxamidomethyl]-6-methyl-3-(2-phenylsulfonylhydrazino)pyrazinone, Hydrotrifluoroacetate] | ≤ 0.1 | ≤ 0.1 | ≥ 100 | ≥ 100 | 2.5 to 100
1-[5-(2-Amino-6-methylpyridyl)methylcarboxamidomethyl]-3-[2-(4-chlorobenzenesulfonyl)hydrazino]-6-methylpyrazinone, Hydrotrifluoroacetate [Example 55] | ≤ 0.1 | ≤ 0.1 | ≥ 100 | ≥ 100 | ≥ 100
C#CCOC(=O)N(CC)Nc1ncc(C)n(CC(=O)NCc2ccc(N)nc2C)c1=O [Example 58, 1-[5-(2-Amino-6-methylpyridyl)methylcarboxamidomeyhyl-]3-[2-ethyl-2-(propargyloxycarbonyl)hydrazino]-6-methylpyrazinone, Hydrotrifluoroacetate] | ≤ 0.1 | ≤ 0.1 | ≥ 100 | ≥ 100 | ≥ 100
Cc1nc(N)ccc1CNC(=O)Cn1c(C)cnc(NNC(=O)OCC(C)(C)C)c1=O [Example 31, 1-[5-(2-Amino-6-methylpyridyl)methylcarboxamidomeyhyl-]6-methyl-3-(2-neopentyloxycarbonylhydrazino)pyrazinone, Hydrotrifluoroacetate] | ≤ 0.1 | ≤ 0.1 | ≥ 100 | ≥ 100 | 2.5 to 100
Cc1nc(N)ccc1CNC(=O)Cn1c(C)cnc(NNC(=O)NCCC(C)(C)C)c1=O [Example 50, 1-[5-(2-Amino-6-methylpyridyl)methylcarboxamidomethyl]-6-methyl-3-[2-(3,3-dimethylbutylcarbamyl)hydrazino]pyrazinone, Hydrotrifluoroacetate] | ≤ 0.1 | ≤ 0.1 | 2.5 to 100 | ≥ 100 | 2.5 to 100
Cc1nc(N)ccc1CNC(=O)Cn1c(C)cnc(NNC(=O)OCc2ccccc2Cl)c1=O [Example 24, 1-[5-(2-Amino-6-methylpyridyl)methylcarboxamidomethyl]-3-[2-(2-chlorobenzyloxycarbonyl)hydrazino]-6-methylpyrazinone, Hydrotrifluoroacetate] | ≤ 0.1 | ≤ 0.1 | ≥ 100 | ≥ 100 | 2.5 to 100
C#CCOC(=O)N(C)Nc1ncc(C)n(CC(=O)NCc2ccc(N)nc2C)c1=O [Example 59, 1-[5-(2-Amino-6-methylpyridyl)methylcarboxamidomethyl]-6-methyl-3-[2-methyl-2-(propargyloxycarbonyl)hydrazino]pyrazinone, Hydrotrifluoroacetate] | ≤ 0.1 | ≤ 0.1 | ≥ 100 | ≥ 100 | 2.5 to 100
Cc1nc(N)ccc1CNC(=O)Cn1c(C)cnc(NNC(=O)NCc2ccc(Cl)cc2)c1=O [Example 37, 1-[5-(2-Amino-6-methylpyridyl)methylcarboxamidomethyl]-3-[2-(4-chlorobenzylcarbamyl)hydrazino]-6-methylpyrazinone, Hydrotrifluoroacetate] | ≤ 0.1 | ≤ 0.1 | ≥ 100 | ≥ 100 | ≥ 100
COc1ccccc1CNC(=O)NNc1ncc(C)n(CC(=O)NCc2ccc(N)nc2C)c1=O [Example 48, 1-[5-(2-Amino-6-methylpyridyl)methylcarboxamidomethyl]-3-[2-(2-methoxybenzylcarbamyl)hydrazino]-6-methylpyrazinone, Hydrotrifluoroacetate] | ≤ 0.1 | ≤ 0.1 | ≥ 100 | ≥ 100 | ≥ 100
Cc1nc(N)ccc1CNC(=O)Cn1c(C)cnc(NN(CCc2ccccc2)CCc2ccccc2)c1=O [Example 60, 1-[5-(2-Amino-6-methylpyridyl)methylcarboxamidomethyl]-6-methyl-3-[2,2-di(2-phenylethyl)hydrazino]pyrazinone, Hydrotrifluoroacetate] | ≤ 0.1 | ≤ 0.1 | 2.5 to 100 | ≥ 100 | ≥ 100
Cc1nc(N)ccc1CNC(=O)Cn1c(C)cnc(NNS(=O)(=O)c2ccccc2F)c1=O [Example 54, 1-[5-(2-Amino-6-methylpyridyl)methylcarboxamidomethyl]-3-[2-(2-fluorobenzenesulfonyl)hydrazino]-6-methyl pyrazinone, Hydrotrifluoroacetate] | ≤ 0.1 | ≤ 0.1 | ≥ 100 | ≥ 100 | ≥ 100
C#CCOC(=O)NNc1ncc(C)n(CC(=O)NCc2ccc(N)nc2C)c1=O [Example 30, 1-[5-(2-Amino-6-methylpyridyl)methylcarboxamidomethyl]-6-methyl-3-(2-propargyloxycarbonylhydrazino)pyrazinone, Hydrotrifluoroacetate] | ≤ 0.1 | ≤ 0.1 | ≥ 100 | ≥ 100 | ≥ 100
C=CCCOC(=O)NNc1ncc(C)n(CC(=O)NCc2ccc(N)nc2C)c1=O [Example 28, 1-[5-(2-Amino-6-methylpyridyl)methylcarboxamidomethyl]-3-[2-(3-butenyloxycarbonyl)hydrazino]-6-methylpyrazinone, Hydrotrifluoroacetate] | ≤ 0.1 | ≤ 0.1 | 2.5 to 100 | ≥ 100 | ≥ 100
Cc1nc(N)ccc1CNC(=O)Cn1c(C)cnc(NNS(=O)(=O)c2ccccc2C(F)(F)F)c1=O [Example 45, 1-[5-(2-Amino-6-methylpyridyl)methylcarboxamidomethyl]-6-methyl-3-[2-(2-trifluoromethylbenzenesulfonyl)hydrazino]pyrazinone, Hydrotrifluoroacetate] | ≤ 0.1 | ≤ 0.1 | 2.5 to 100 | ≥ 100 | ≥ 100
C=CCOC(=O)NNc1ncc(C)n(CC(=O)NCc2ccc(N)nc2C)c1=O [Example 25, 3-(2-Allyloxycarbonylhydrazino)-1-[5-(2-amino-6-methylpyridyl)methylcarboxamidomethyl]-6-methylpyrazinone, Hydrotrifluoroacetate] | ≤ 0.1 | ≤ 0.1 | ≥ 100 | ≥ 100 | ≥ 100
COc1ccc(S(=O)(=O)NNc2ncc(C)n(CC(=O)NCc3ccc(N)nc3C)c2=O)cc1 [Example 57] | ≤ 0.1 | ≤ 0.1 | 2.5 to 100 | ≥ 100 | ≥ 100
Cc1nc(N)ccc1CNC(=O)Cn1c(C)cnc(NNC(=O)Cc2ccccc2)c1=O [Example 12, 1-[5-(2-Amino-6-methylpyridyl)methylcarboxamidomeyhyl-]6-methyl-3-(2-phenylacetylhydrazino)pyrazinone, Hydrotrifluoroacetate] | ≤ 0.1 | ≤ 0.1 | ≥ 100 | 2.5 to 100 | ≥ 100
